Results on 20 compounds are retold here after ChEMBL document CHEMBL3259558, “Identification of amides derived from 1H-pyrazolo[3,4-b]pyridine-5-carboxylic acid as potent inhibitors of human nicotinamide phosphoribosyltransferase (NAMPT)” (Bioorg Med Chem Lett, 2013).

The target of data set [1] is Nicotinamide phosphoribosyltransferase (Homo sapiens, UniProt P43490). Put plainly: Inhibition of C-terminal His-6-tagged full length human NAMPT expressed in Escherichia coli (DE3) cells after 30 mins by mass spectrometry-based analysis.
The subject of data set [2] is A2780. Description: Antiproliferative activity against human A2780 cells assessed as cell viability after 72 hrs by SRB assay in presence of nitotinamide mononucleotide. It is filed as functional, cell-based. On the technique in general: The SRB assay estimates cell density from bound dye.
Data set [3] deals with A2780. Put plainly: Antiproliferative activity against human A2780 cells assessed as cell viability after 72 hrs by SRB assay. The class given is functional, cell-based. Conditions: A2780, 72 h.
A short description of data set [4]: Fraction unbound in mouse plasma at 5 uM by LC-MS/MS analysis. The class given is ADME, cell-free.
Data set [5] is described as follows: Aqueous solubility of the compound in PBS at pH 7.2 by LC/CLND analysis. It is filed as physicochemical.
A short description of data set [6]: Apparent permeability from apical to basolateral side in MDCK cells at 10 uM by LC-MS/MS analysis. It is filed as ADME, cell-based, Canis lupus familiaris. To be noted: dog.

Each structure is given as a SMILES string. Calls of active or inactive are those of the source. The rule behind the calls is not given here. Where only a bound is given, the exact number is not on record here.

Chain of Nicotinamide phosphoribosyltransferase (P43490 whole entry): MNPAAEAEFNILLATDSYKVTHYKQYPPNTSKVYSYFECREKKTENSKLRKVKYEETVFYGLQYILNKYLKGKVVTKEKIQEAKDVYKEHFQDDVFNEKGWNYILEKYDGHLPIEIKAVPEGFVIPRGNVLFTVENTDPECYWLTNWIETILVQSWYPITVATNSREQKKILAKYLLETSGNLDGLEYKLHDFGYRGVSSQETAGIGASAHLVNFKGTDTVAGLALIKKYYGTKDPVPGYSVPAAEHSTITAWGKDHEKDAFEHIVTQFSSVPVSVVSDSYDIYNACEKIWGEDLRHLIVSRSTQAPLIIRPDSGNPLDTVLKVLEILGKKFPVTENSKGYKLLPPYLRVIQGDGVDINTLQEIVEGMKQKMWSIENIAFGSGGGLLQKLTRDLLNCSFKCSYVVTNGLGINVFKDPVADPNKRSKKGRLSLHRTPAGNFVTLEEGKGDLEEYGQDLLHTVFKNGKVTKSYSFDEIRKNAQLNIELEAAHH

As a reminder, the IC50 is the concentration needed to halve the response being measured. `O=C(NCc1ccc(S(=O)(=O)N2CCN(C3COC3)CC2)cc1)c1cnc2[nH]ncc2c1`: the figures for the IC50 in data set [1] and in data set [3] were 0.44 µM and 0.045 µM, respectively. For the same compound, the inhibition entry in data set [2] is “inactive”.

In the case of `O=C(NCc1ccc(S(=O)(=O)c2ccccc2)cc1)c1ccc2[nH]ncc2n1`, the IC50 was 1.3 µM in data set [1] and greater than 2 µM in data set [3]. The inhibition entry in data set [2] is “inactive”.

On to `O=C(NCc1ccc(S(=O)(=O)N2CCC(N3CCCC3)CC2)cc1)c1cnc2[nH]ncc2c1`, for which the inhibition result in data set [2] is “inactive”. Also, in data set [3], the IC50 came out at 0.035 µM.

As for `N#CC1CCN(S(=O)(=O)c2ccc(CNC(=O)c3cnc4[nH]ncc4c3)cc2)CC1`, the IC50 in data set [1] is 0.41 µM; in data set [3], greater than 2 µM. Also, the inhibition entry in data set [2] was “inactive”.

Regarding `O=C(NCc1ccc(S(=O)(=O)c2ccccc2)cc1)c1cnc2[nH]ccc2c1`, the inhibition result in data set [2] is “inactive”. Further, the IC50 in data set [3] is greater than 2 µM.

What is called fraction unbound is the share of the substance not bound to proteins or other matrix. Higher therefore signals weak binding. The solubility is how much of the substance goes into solution per volume. Broadly, the Papp A→B is how fast a substance crosses the layer from the apical side. `O=C(NCc1ccc(S(=O)(=O)c2cc(F)cc(F)c2)cc1)c1cnc2[nH]ncc2c1` displayed a fraction unbound at 5 µM in data set [4] of 0.114. For the same compound, the inhibition entry in data set [2] is “inactive”. Moreover, in data set [5], the solubility was less than 1 µM. The Papp A→B at 10 µM in data set [6] was determined as 7.8 ×10⁻⁶ cm/s. For the same compound, in data set [3], the IC50 was determined as 0.006 µM.

As to `O=C(NCc1ccc(S(=O)(=O)N2CCOCC2)cc1)c1cnc2[nH]ncc2c1`, the values for the IC50 in data set [1] and in data set [3] were 0.37 µM and 0.28 µM, respectively. In addition, the inhibition entry in data set [2] is “inactive”.

With `COC1CCN(S(=O)(=O)c2ccc(CNC(=O)c3cnc4[nH]ncc4c3)cc2)CC1`, the IC50 was determined as 0.4 µM in data set [1] and 0.039 µM in data set [3]. In data set [2], the inhibition entry was “inactive”.

Turning to `O=C(NCc1ccc(S(=O)(=O)c2ccccc2)cc1)c1ccc2nccn2c1`, the inhibition entry in data set [2] was “inactive”.

Turning to `CC(C)n1cc(S(=O)(=O)c2ccc(CNC(=O)c3cnc4[nH]ncc4c3)cc2)cn1`, the IC50 was found to be 0.099 µM in data set [1] and 0.012 µM in data set [3]. Besides, the inhibition result in data set [2] is “inactive”.

Regarding `O=C(NCc1ccc(S(=O)(=O)N2CC3(CCOCC3)C2)cc1)c1cnc2[nH]ncc2c1`, the results for the IC50 in data set [1] and in data set [3] were 0.11 µM and 0.045 µM, respectively. In addition, the inhibition entry in data set [2] is “inactive”.

With `CCn1cc(S(=O)(=O)c2ccc(CNC(=O)c3cnc4[nH]ncc4c3)cc2)cn1`, the IC50 was 0.19 µM in data set [1] and 0.031 µM in data set [3]. Further, in data set [2], the inhibition result was “inactive”.

As to `O=C(NCc1ccc(S(=O)(=O)N2CCCCC2)cc1)c1ccc2[nH]ncc2c1`, the IC50 in data set [1] and in data set [3] was greater than 2 µM in each case. Moreover, the inhibition entry in data set [2] was “inactive”.

For the compound `Cn1ncc2cc(C(=O)NCc3ccc(S(=O)(=O)c4ccccc4)cc3)cnc21`, the values for the IC50 in data set [1] and in data set [3] were 1.7 µM and greater than 2 µM, respectively. For the same compound, the inhibition result in data set [2] is “inactive”.

`O=C(NCc1ccc(S(=O)(=O)c2ccccc2)cc1)c1cnc2[nH]ncc2c1`: the IC50 came out at 0.054 µM in data set [1] and 0.066 µM in data set [3]. The inhibition entry in data set [2] was “inactive”.

On to `O=C(NCc1ccc(S(=O)(=O)N2CCC(O)CC2)cc1)c1cnc2[nH]ncc2c1`, for which the IC50 in data set [1] is 0.41 µM; in data set [3], 0.21 µM. For the same compound, in data set [2], the inhibition entry is “inactive”.

Regarding `O=C(NCc1ccc(S(=O)(=O)c2ccccc2)cc1)c1cc2cn[nH]c2cn1`, the IC50 in data set [1] and in data set [3] was greater than 2 µM in each case. Besides, the inhibition result in data set [2] was “inactive”.

As for `NC1CCN(S(=O)(=O)c2ccc(CNC(=O)c3cnc4[nH]ncc4c3)cc2)CC1`, the IC50 in data set [1] amounted to 0.39 µM; in data set [3] it was 0.33 µM. Further, the inhibition entry in data set [2] was “inactive”.

As to `O=C(NCc1ccc(S(=O)(=O)N2CCCCC2)cc1)c1cnc2[nH]ncc2c1`, the IC50 in data set [1] stood at 0.1 µM; in data set [3] it was 0.088 µM. Besides, the inhibition entry in data set [2] was “inactive”.

Take `O=C(NCc1ccc(S(=O)(=O)N2CCCCC2)cc1)c1ccc2nccn2c1`: the inhibition result in data set [2] is “inactive”.
